Source: patent EP1495019B1, “GLUCOPYRANOSIDE, PROCESS FOR ISOLATION THEREOF, PHARMACEUTICAL COMPOSITION CONTAINING SAME AND USE THEREOF” (COUNCIL OF SCIENTIFIC AND INDUSTRIAL RESEARCH, priority 2002, dated 2003)

Test system: Wistar rats
Experiment: hypoglycaemic activity in 18 hour fasted Wistar rats
Assay type: in vivo
Description: The compound was evaluated for hypoglycaemic activity in 18 hour fasted Wistar rats. […] The mean fall recorded was 24 mg/100 ml blood, from an initial mean of 91 to mean of 67 mg/100 ml blood.

Compound | mean fall (positive control, dose not given) | hypoglycaemic effect (dose of 15 mg/kg p.o.) | mean (after treatment) (dose of 15 mg/kg p.o., from an initial mean of 91) | mean fall (dose of 15 mg/kg p.o., initial mean of 91 mg/100 ml blood)
CCCNC(=O)NS(=O)(=O)c1ccc(Cl)cc1 [chlorpropamide, reference compound] | 18 mg/100 ml of blood |  |  | 
OC[C@H]1O[C@@H](c2c(O)ccc3cc(Cc4ccc(O)cc4)oc23)[C@H](O)[C@@H](O)[C@@H]1O [formula 1, 6-hydroxy-2-p-hydroxybenzylbenzofuran-7-C-β-D-glucopyranoside] |  | hypoglycaemic effect was recorded in all the treated rats | 67 mg/100 ml blood | 24 mg/100 ml blood
